This is an account of results in ChEMBL document CHEMBL4330130, “Synthesis of amide and sulfonamide substituted N-aryl 6-aminoquinoxalines as PFKFB3 inhibitors with improved physicochemical properties” (Bioorg Med Chem Lett, 2019).

Each structure is given as a SMILES string. In brackets after ≈: the same amount, converted by molar mass.

The data set can be described thus: Kinetic solubility of the compound in pH 8 Tris buffer at 500 uM after 90 by UV-Vis absorbance analysis. The format is physicochemical. To be noted: read-out: Kinetic_solubility.
Take `CC(=O)N1CCCC(NC(=O)c2ccncc2Nc2cc(-c3ccc4ccn(C)c4c3)c3nccnc3c2)C1` (stereo not given): the solubility kinetic at 500 µM came out at 212 µg/mL (≈ 408 µM). Take `CN1CCC(NC(=O)c2ccncc2Nc2cc(-c3ccc4ccn(C)c4c3)c3nccnc3c2)CC1=O` (stereo not given): the solubility kinetic at 500 µM came to 48 µg/mL (≈ 94.9 µM). Turning to `CC(=O)N1CC(NC(=O)c2ccncc2Nc2cc(-c3ccc4ccn(C)c4c3)c3nccnc3c2)C1`, the solubility kinetic at 500 µM was 244 µg/mL (≈ 496 µM). With `CN(Cc1cncnc1)S(=O)(=O)c1ccccc1Nc1cc(-c2ccc3ccn(C)c3c2)c2nccnc2c1`, the solubility kinetic at 500 µM worked out at 3 µg/mL (≈ 5.6 µM). To `Cn1ccc2ccc(-c3cc(Nc4ccccc4S(=O)(=O)NCc4cncnc4)cc4nccnc34)cc21` belongs 3 µg/mL (≈ 5.75 µM). In the case of `CN1CC(NC(=O)c2ccncc2Nc2cc(-c3ccc4ccn(C)c4c3)c3nccnc3c2)C1`, the solubility kinetic at 500 µM is 170 µg/mL (≈ 367 µM). On to `CN1CCC(NC(=O)c2ccncc2Nc2cc(-c3ccc4ccn(C)c4c3)c3nccnc3c2)CC1`, for which the solubility kinetic at 500 µM came to 246 µg/mL (≈ 500 µM). The figure for `Cc1csc2ccc(-c3cc(Nc4cnccc4C(=O)N[C@H]4CCN(C)C4)cc4nccnc34)cc12` is 80 µg/mL (≈ 162 µM); for `CN1CCC(NC(=O)c2ccncc2Nc2cc(-c3ccc4ccn(C)c4c3)c3nccnc3c2)C1` (stereo not given) it is 229 µg/mL (≈ 480 µM). The figure for `CN1CC(NC(=O)c2ccncc2Nc2cc(-c3ccc4ccn(C)c4c3)c3nccnc3c2)CCC1=O` (stereo not given) is 253 µg/mL (≈ 500 µM); for `CN1CCC(NC(=O)c2ccncc2Nc2cc(-c3cc(F)c4ccn(C)c4c3)c3nccnc3c2)C1` (stereo not given) it is 185 µg/mL (≈ 373 µM); for `CC(=O)N1CCOC(CNC(=O)c2ccncc2Nc2cc(-c3ccc4ccn(C)c4c3)c3nccnc3c2)C1` (stereo not given) it is 268 µg/mL (≈ 500 µM).

As for `Cn1ccc2ccc(-c3cc(Nc4ccccc4S(N)(=O)=O)cc4nccnc34)cc21`, the solubility kinetic at 500 µM stood at 6 µg/mL (≈ 14 µM). To `CN1CCC(N(C)C(=O)c2ccncc2Nc2cc(-c3ccc4ccn(C)c4c3)c3nccnc3c2)C1` (stereo not given) belongs 245 µg/mL (≈ 498 µM). To `CN1CCC(CNS(=O)(=O)c2ccccc2Nc2cc(-c3ccc4ccn(C)c4c3)c3nccnc3c2)C1` (stereo not given) belongs 35 µg/mL (≈ 66.5 µM). To `Cn1cc(NC(=O)c2ccncc2Nc2cc(-c3ccc4ccn(C)c4c3)c3nccnc3c2)cn1` belongs 2 µg/mL (≈ 4.21 µM); to `Cc1csc2ccc(-c3cc(Nc4cnccc4C(=O)N[C@@H]4CCN(C)C4)cc4nccnc34)cc12`, 79 µg/mL (≈ 160 µM). As for `CN1CCC(NS(=O)(=O)c2ccccc2Nc2cc(-c3ccc4ccn(C)c4c3)c3nccnc3c2)C1` (stereo not given), the solubility kinetic at 500 µM worked out at 26 µg/mL (≈ 50.7 µM). To `Cn1ccc2ccc(-c3cc(Nc4cnccc4C(=O)NC4CCNC(=O)C4)cc4nccnc34)cc21` (stereo not given) belongs 242 µg/mL (≈ 492 µM).

For `Cn1ccc2ccc(-c3cc(Nc4ccccc4S(C)(=O)=O)cc4nccnc34)cc21`, the solubility kinetic at 500 µM worked out at 2 µg/mL (≈ 4.67 µM).

For the compound `Cn1ccc2ccc(-c3cc(Nc4cnccc4C(=O)Nc4cncnc4)cc4nccnc34)cc21`, the solubility kinetic at 500 µM amounted to 4 µg/mL (≈ 8.47 µM). To `Cn1ccc2ccc(-c3cc(Nc4cnccc4C(N)=O)cc4nccnc34)cc21` belongs 40 µg/mL (≈ 101 µM); to `CN(C)S(=O)(=O)c1ccccc1Nc1cc(-c2ccc3ccn(C)c3c2)c2nccnc2c1`, 2 µg/mL (≈ 4.37 µM).

Consider `CN1CCCC(NS(=O)(=O)c2ccccc2Nc2cc(-c3ccc4ccn(C)c4c3)c3nccnc3c2)C1` (stereo not given), for which the solubility kinetic at 500 µM came out at 9 µg/mL (≈ 17.1 µM). To `Cn1ccc2ccc(-c3cc(Nc4cnccc4C(=O)NCC4COCCN4)cc4nccnc34)cc21` (stereo not given) belongs 239 µg/mL (≈ 484 µM).

Turning to `Cn1cc(CNS(=O)(=O)c2ccccc2Nc2cc(-c3ccc4ccn(C)c4c3)c3nccnc3c2)cn1`, the solubility kinetic at 500 µM was found to be 2 µg/mL (≈ 3.82 µM).

Consider `CN1CCC(CNC(=O)c2ccncc2Nc2cc(-c3ccc4ccn(C)c4c3)c3nccnc3c2)C1` (stereo not given), for which the solubility kinetic at 500 µM worked out at 246 µg/mL (≈ 500 µM). To `Cn1cc(CNC(=O)c2ccncc2Nc2cc(-c3ccc4ccn(C)c4c3)c3nccnc3c2)cn1` belongs 127 µg/mL (≈ 260 µM); to `CNC(=O)c1ccncc1Nc1cc(-c2ccc3ccn(C)c3c2)c2nccnc2c1`, 4 µg/mL (≈ 9.79 µM). The figure for `CC(=O)N1CCC(NC(=O)c2ccncc2Nc2cc(-c3ccc4ccn(C)c4c3)c3nccnc3c2)CC1` is 213 µg/mL (≈ 410 µM).

Consider `CC(=O)N1CC(CNC(=O)c2ccncc2Nc2cc(-c3ccc4ccn(C)c4c3)c3nccnc3c2)C1`, for which the solubility kinetic at 500 µM worked out at 252 µg/mL (≈ 498 µM). The figure for `CC(=O)N1CCC(NC(=O)c2ccncc2Nc2cc(-c3ccc4ccn(C)c4c3)c3nccnc3c2)C1` (stereo not given) is 253 µg/mL (≈ 500 µM); for `CN1CCCC(NC(=O)c2ccncc2Nc2cc(-c3ccc4ccn(C)c4c3)c3nccnc3c2)C1` (stereo not given) it is 246 µg/mL (≈ 500 µM). To `CN1CCC(NC(=O)c2ccncc2Nc2cc(-c3ccc4sc(N)nc4c3)c3nccnc3c2)C1` (stereo not given) belongs 241 µg/mL (≈ 485 µM); to `Cn1ccc2ccc(-c3cc(Nc4cnccc4C(=O)NCc4cncnc4)cc4nccnc34)cc21`, 233 µg/mL (≈ 479 µM).

For the compound `CNS(=O)(=O)c1ccccc1Nc1cc(-c2ccc3ccn(C)c3c2)c2nccnc2c1`, the solubility kinetic at 500 µM is 2 µg/mL (≈ 4.51 µM). Regarding `Cn1ccc2ccc(-c3cc(Nc4ccccc4S(=O)(=O)Nc4cncnc4)cc4nccnc34)cc21`, the solubility kinetic at 500 µM is 254 µg/mL (≈ 500 µM). As to `Cn1ccc2ccc(-c3cc(Nc4ccccc4S(=O)(=O)N4CCOCC4)cc4nccnc34)cc21`, the solubility kinetic at 500 µM stood at 5 µg/mL (≈ 10 µM). To `Cn1ccc2ccc(-c3cc(Nc4ccccc4S(=O)(=O)NCC4CCOCC4)cc4nccnc34)cc21` belongs 2 µg/mL (≈ 3.79 µM); to `CN(C)C(=O)c1ccncc1Nc1cc(-c2ccc3ccn(C)c3c2)c2nccnc2c1`, 175 µg/mL (≈ 414 µM).
